From patent publication US5668143A, “Heterocyclic benzenesulfonylimine derivatives as inhibitors of IL-1 action” (Merrell Pharmaceuticals Inc., priority 1996, dated 1997)

Experiments:
[1] = test system: interleukin-1 beta (IL-1β) release (production) by human peripheral blood monocyte-derived macrophages; test: Endotoxin-Induced Interleukin-1 Beta Release by Human Macrophages; assay type: cell-based; conditions: Macrophage, endotoxin 20 ng/mL (Salmonella typhimurium, Re-mutant), compound 1 h before stimulation, supernatant at 24 h, ELISA
Protocol: Endotoxin-Induced Interleukin-1 Beta Release by Human Macrophages The objective of this test is to determine the inhibitory concentrations for the test compounds against endotoxin-induced interleukin-1 beta (IL-1β) release (production) by human peripheral blood monocyte-derived macrophages. The source of the human peripheral blood monocyte-derived macrophages is as follows: Venous blood is collected from healthy volunteers in 10 mM sodium citrate (2 mL sterile sodium citrate for 40 mL blood). Mononuclear cells are isolated with the Leucoprep tubes (Becton Dickenson, product number 2752 or 2751) spun at 1500 g for 15 minutes. Aliquots of 3×10^6 mononuclear cells are added to 24-well tissue culture plates (Corning) in RPMI-1640. After one hour incubation at 37° C., non-adherent cells are gently rinsed off. The adherent cells (macrophages) are given back fresh medium RPMI-1640, 1 mL/well. Macrophage monolayer cultures are pretreated with compounds one hour prior to endotoxin (20 ng/mL, Salmonella typhimurium, Re-mutant, from Ribi Immuchem.) stimulation. Compounds dissolved in 95% ethanol or DMSO would require additional monolayer cultures treated with 10 or 2.5 μl 95% ethanol or DMSO, respectively. Culture supernatants are collected 24 hours later and are tested for IL-1β using a commercial ELISA kit (Cistron). The IL-1β concentration in the culture supernatant is calculated by a standard curve generated from a series of known concentrations. Potency of compound is reported in IC50 (μM).

[2] = Interleukin-1-Beta-Induced Tumor Necrosis Factor Alpha Release by Human Macrophages; assay type: cell-based; conditions: Macrophage; TNF-α release; recombinant human IL-1β 20 ng/mL; compound 1 h before stimulation; supernatant at 24 h; ELISA
Source text: Interleukin-1-Beta-Induced Tumor Necrosis Factor Alpha Release by Human Macrophages
To determine the inhibitory concentrations for the test compounds against interleukin-1 beta (IL-1β)-induced tumor necrosis factor alpha (TNFα) release by human peripheral blood monocyte-derived macrophages. It should be understood that this is a test of the ability of the test compounds to modulate, i.e. inhibit, the activity of IL-1β by measuring the inhibition of IL-1β induced release of TNFα.
Source Human peripheral blood monocyte-derived macrophages:
Venous blood is collected form healthy volunteers in 10 mM sodium citrate (2 mL sterile sodium citrate for 40 mL blood). Mononuclear cells are isolated with the Leucoprep tubes (Becton Dickinson, product number 2752 or 2751) spun at 1500 g for fifteen minutes. Aliquots of 3×10^6 mononuclear cells are added to 24-well tissue culture plates (Corning) in RPMI-1640. After 1 hour incubation at 37° C., non-adherent cells are gently rinsed off. The adherent cells (macrophages) are given back fresh medium RPMI-1640, 1 mL/well.
Macrophage monolayer cultures are pretreated with compounds one hour prior to IL-1β (20 ng/mL, recombinant human IL-1β) stimulation. Compounds dissolved in 95% ethanol or DMSO would require additional monolayer cultures treated with 10 or 2.5 μl 95% ethanol or DMSO, respectively. Culture supernatants are collected 24 hours later and are tested for TNF-α using a commercial ELISA kit (Cistron).
The TNF-α concentration in the culture supernatant is calculated by a standard curve generated from a series of known concentrations. Potency of compound is reported in IC50 (μM).

Row | SMILES | IC50 [1] | IC50 [2]
1 | COC(=O)c1cc(=NS(=O)(=O)c2ccccc2)c2c(Cl)cc(Cl)cc2[nH]1 [5,7-Dichloro-4-[benzenesulfonylimino]-1,4-dihydroquinoline-2-carboxylic acid, methyl ester] | 6 µM | 3 µM
2 | COC(=O)c1cc(=NS(=O)(=O)c2ccccc2)c2ccccc2o1 [4-[Benzenesulfonylimino]-4H-chromene-2-carboxylic acid, methyl ester] | 3 µM | 2 µM
3 | CCCCOC(=O)c1cc(=NS(=O)(=O)c2ccccc2)c2c(Cl)cc(Cl)cc2[nH]1 [5,7-Dichloro-4-[benzenesulfonylimino]-1,4-dihydroquinoline-2-carboxylic acid, butyl ester] | 3 µM | 5 µM
4 | CCOC(=O)c1cc(=NS(=O)(=O)c2ccccc2)c2c(Cl)cc(Cl)cc2[nH]1 [5,7-Dichloro-4-[benzenesulfonylimino]-1,4-dihydroquinoline-2-carboxylic acid, ethyl ester] | 2 µM | 3 µM
5 | CNC(=O)c1cc(=NS(=O)(=O)c2ccccc2)c2c(Cl)cc(Cl)cc2[nH]1 [5,7-Dichloro-4-[benzenesulfonylimino]-1,4-dihydroquinoline-2-carboxylic acid-N-methylamide] | 3 µM | 4 µM
